We go through 13 compounds from publication PMC12640959, “Elucidation of anti-SARS-CoV-2 and anti-inflammatory bioactives in Qingyan Dropping Pills via integrated in silico screening and bioactivity validation” (Frontiers in Medicine, 2025).

For series [1], the system named is SARS-CoV-2. Further details: method as in PMID 37245876. To be noted: Vero E6 monolayers, noncytotoxic concentrations; cited from earlier work.
Series [2] addresses S^pro RBD. Further details: method as in PMID 34403732. The conditions noted are these: cited from earlier work.
The conditions of series [3]: rat, in vivo, po; cited from earlier work.
For series [4], the target named is T1, SARS-CoV-2 spike protein (S^pro) (Severe acute respiratory syndrome coronavirus 2, UniProt P0DTC2).
T1 construct: purchased Sino Biological Inc. (Beijing, China)
In words: SPR assay (Biacore T200), immobilized S^pro. To be noted: CM5 chip, 25 °C, pH 7.4, 5% DMSO, read-out: equilibrium dissociation constant (KD), S^pro. Type of series: binding. On the technique in general: SPR reads the build-up and loss of mass on a sensor chip optically.

Series [5] has as its target SARS-CoV-2 papain-like protease (PL^pro) (Severe acute respiratory syndrome coronavirus 2, UniProt P0DTD1). Briefly: SPR assay (Biacore T200), immobilized PL^pro. Type of series: binding.
Series [6] has as its target SARS-CoV-2 main protease (M^pro) (Severe acute respiratory syndrome coronavirus 2, UniProt P0DTD1). Briefly: SPR assay (Biacore T200), immobilized M^pro. The class given is binding. To be noted: CM5 chip, 25 °C, pH 7.4, 5% DMSO.
The test system of series [7] is RAW 264.7 cells. Briefly: MTT cell viability assay in RAW 264.7 cells. The class given is cell-based. The protocol: (§1) RAW 264.7 cells were cultured in DMEM with 10% fetal bovine serum, 100 μg/mL streptomycin, and 100 U/mL penicillin at 37 °C and supplemented with 5% CO2 and 95% air. After seeded and cultured in a 96-well plate (2 × 10^5 cells/well, 100 μL medium/well) for overnight, RAW 264.7 were treated with the tested compounds for 24 h, respectively. Then, 50 μL MTT (2.5 mg/mL) was added into each well and incubated at 37 °C for 4 h. Finally, the absorbance was recorded at 490 nm by a microplate reader to assess the cell viability.
Background: Tetrazolium dyes change colour on reduction, which living cells bring about.

The subject of series [8] is NO. Briefly: NO level in LPS-induced RAW 264.7 cells. Type of series: cell-based. To be noted: RAW 264.7, LPS 1 μg/mL, 24 h, vs model group, dose-dependent. From the text:
(§2) NO is an essential pro-inflammatory factor, which can be not only highly expressed in cells but also promoted the expression of other inflammatory cytokines. TNF-α, IL-6, and IL-1β were considered as the main inflammatory cytokines, which were screened as the key targets in network pharmacology. So, the cytokines, including NO, TNF-α, IL-6, and IL-1β, were selected as indicators to evaluate the anti-inflammatory effects. After cultured in a 96-well plate overnight for 1 × 10^5 cells/well, RAW 264.7 cells were simultaneously treated with the tested compounds (concentration from 5 μM to 100 μM) and lipopolysaccharide (LPS) (concentration with 1 μg/mL) for 24 h. Then, the supernatant was collected to measure the cytokines levels with the corresponding assay kits, respectively.

For series [9], the system named is IL-6. Briefly: IL-6 level (ELISA) in LPS-induced RAW 264.7 cells. Type of series: cell-based. To be noted: RAW 264.7, LPS 1 μg/mL, 24 h, vs model group.
From the text: as §2
For orientation: In an ELISA, binding on a coated surface is turned into a signal by an enzyme label.

For series [10], the system named is IL-1β. Briefly: IL-1β level (ELISA) in LPS-induced RAW 264.7 cells. The class given is cell-based. The conditions noted are these: RAW 264.7, LPS 1 μg/mL, 24 h, vs model group.
From the text: as §2

Series [11] has as its target SARS-CoV-2 M^pro (Severe acute respiratory syndrome coronavirus 2, UniProt P0DTD1). Briefly: FRET enzymatic inhibition assay on M^pro. Type of series: biochemical.
For series [12], the target named is SARS-CoV-2 PL^pro (Severe acute respiratory syndrome coronavirus 2, UniProt P0DTD1). Briefly: FRET enzymatic inhibition assay on PL^pro. Type of series: biochemical. To be noted: for inhibition on PL^pro at 40 μM: 40 μM compound.
Series [13] in a line: MTT cell viability assay in RAW 264.7 cells. Type of series: cell-based. The conditions noted are these: mouse. The protocol:
as §1

Series [14] deals with TNF-α. In words: TNF-α level (ELISA) in LPS-induced RAW 264.7 cells. Type of series: cell-based. To be noted: RAW 264.7, LPS 1 μg/mL, 24 h, vs model group.
From the text: as §2

Series [15] deals with SARS-CoV-2 Omicron BA.5. Briefly: cytopathic effects (CPE) inhibition assay in Vero E6 cells. Type of series: cell-based.
Series [16] deals with RdRp. Further details: method as in PMID 33614402. To be noted: cell-free and cell-based assays; cited from earlier work.
Series [17] in a line: in vitro. The conditions noted are these: African green monkey.
Where [18] appears, read: MTT, 24 h, tested up to 100 μΜ, read-out: CC50 in RAW264.7 cells.

Like-named read-outs stand apart in the source and are kept apart here. Bounds are passed on as bounds.

For the compound `O=C1O[C@H]2[C@@H]3OC(=O)c4cc(O)c(O)c(O)c4-c4c(O)c(O)c5oc(=O)c6c(c(O)c(O)c7oc(=O)c4c5c76)-c4c(cc(O)c(O)c4O)C(=O)OC[C@H]3OC(O)[C@@H]2OC(=O)c2cc(O)c(O)c(O)c2-c2c1cc(O)c(O)c2O` (mixture of isomers) [punicalagin], the virus-induced plaque formation result in [1] is recorded as “reduce”.

`O=C(O)C[C@@H]1C(=O)O[C@H]2[C@@H]3OC(=O)c4cc(O)c(O)c(O)c4-c4c(cc(O)c(O)c4O)C(=O)OC[C@H]2O[C@@H](OC(=O)c2cc(O)c(O)c(O)c2)[C@@H]3OC(=O)c2cc(O)c(O)c3c2[C@H]1[C@H](O)C(=O)O3` [chebulagic acid]: the virus-induced plaque formation entry in series [1] was “reduce”.

One may read the Kd as the concentration at which binding is half-saturated. For `O=C(O[C@@H]1Cc2c(O)cc(O)cc2O[C@@H]1c1cc(O)c(O)c(O)c1)c1cc(O)c(O)c(O)c1` [epigallocatechin gallate], the Kd in series [2] is 11.5 µM.

As a reminder, the Tmax is the time from dosing to the highest level. For the compound `CC1(C)C2CCC1(C)C(O)C2` (stereo not shown) [borneol], the Tmax in [3] was 20 to 25 min.

`O=C(OC[C@H]1OC(O)[C@@](O)(COC(=O)c2cc(O)c(O)c(O)c2)[C@@H]1O)c1cc(O)c(O)c(O)c1` (stereo partly shown) [HAM, hamamelitannin]: the Kd in series [4] was found to be 93.3 nM. In addition, the “equilibrium dissociation constant (KD), PL^pro” value in series [5] (SPR, CM5 chip, 25 °C, pH 7.4, 5% DMSO) is listed as “negligible affinity”. The “equilibrium dissociation constant (KD), M^pro” value in series [6] is “negligible affinity”. Also, in [7], the “cell viability of RAW264.7 cells” value is given as “significantly decreased”. The “production of NO” value in [8] was “inhibited”. The “level of IL-6” value in series [9] was “significantly reduce”. In addition, the “level of IL-1β” value in series [10] was “significantly reduce”.

By IC50 is commonly meant the concentration that gives 50% inhibition. As for `C[C@@H]1O[C@@H](O[C@H]2[C@H](Oc3cc(O)c4c(=O)cc(-c5ccc(O)cc5)oc4c3)O[C@H](CO)[C@@H](O)[C@@H]2O)[C@H](O)[C@H](O)[C@H]1O` [RHO, rhoifolin], the Kd in [4] turned out to be 7070 nM; in series [5] (SPR, CM5 chip, 25 °C, pH 7.4, 5% DMSO, read-out: equilibrium dissociation constant (KD), PL^pro) it was 7.72 µM. The IC50 in series [11] (FRET, 0.2 μM protein, 20 μM substrate, read-out: IC50 on M^pro) is 21.6 ± 8.78 µM; in [12] (FRET, 1 μM protein, 10 μM substrate, read-out: IC50 on PL^pro), more than 100 µM. Also, the “inhibition on PL^pro at 40 μM” value in [12] (FRET) is given as “poor inhibition”. Moreover, the CC50 at 24 h in [13] is more than 100 µM. Moreover, in series [8], the “production of NO” value is recorded as “inhibited”. The “level of IL-6” value in series [9] is listed as “significantly reduce”. The “level of IL-1β” value in series [10] was “significantly reduce”. The “level of TNF-α” value in series [14] is on record as “decrease”.

For `CC(C)=CCc1c(O)ccc(C(=O)/C=C/c2ccc(O)cc2)c1O` [isobavachalcone], the Kd in series [2] was 5.7 µM.

For `O=C(O)c1cc(O)c(O)c(O)c1` [GAL, gallic acid], the CC50 at 24 h in [13] (setting [18]) was more than 100 µM. Further, the “production of NO” value in [8] is “inhibited”. The “level of IL-6” value in series [9] is on record as “significantly reduce”. Further, in series [10], the “level of IL-1β” value is given as “significantly reduce”. In series [14], the “level of TNF-α” value is “decrease”.

For the compound `O=C(/C=C/c1ccc(O)c(O)c1)O[C@@H]1C[C@](O)(C(=O)O)C[C@@H](OC(=O)/C=C/c2ccc(O)c(O)c2)[C@H]1O` [isochlorogenic acid A], in series [2], the Kd is 18.3 µM.

Consider `C[C@H](CCC(=O)NCC(=O)O)[C@H]1CC[C@H]2[C@@H]3[C@H](O)C[C@@H]4C[C@H](O)CC[C@]4(C)[C@H]3C[C@H](O)[C@]12C` [GLYCH, glycocholic acid], for which, in series [7] (MTT, above 40 μΜ, p < 0.05), the “cell viability of RAW264.7 cells” value was “significantly decreased”. In [8], the “production of NO” value is on record as “inhibited”. Also, the “level of IL-6” value in [9] is listed as “significantly reduce”. Also, the “level of IL-1β” value in series [10] is on record as “significantly reduce”. Moreover, the “level of TNF-α” value in series [14] was “decrease”.

A word on the EC50: it is the midpoint of the concentration-response curve. In the case of `O=C(O[C@@H]1O[C@@H]2COC(=O)c3cc(O)c(O)c(O)c3-c3c(cc(O)c(O)c3O)C(=O)O[C@H]([C@H]1O)[C@@H]2O)c1cc(O)c(O)c(O)c1` [COR, corilagin], the Kd in series [4] came to 192 nM; in series [5] it was 6.24 µM. In addition, the IC50 in [11] is 0.73 ± 0.05 µM; in [12] it was more than 100 µM. Also, the “inhibition on PL^pro at 40 μM” value in series [12] (FRET) was “poor inhibition”. The compound further displayed an EC50 in series [15] (Severe acute respiratory syndrome coronavirus 2, Vero C1008, 48 h) of 12.8 µM. Further, the CC50 at 24 h in series [13] was more than 100 µM. Further, the “production of NO” value in [8] was “inhibited”. In addition, in series [9], the “level of IL-6” value is “significantly reduce”. Also, the “level of IL-1β” value in [10] was “significantly reduce”. Further, in series [14], the “level of TNF-α” value is recorded as “decrease”. Further, the RdRp polymerase activity result in series [16] was “robustly inhibiting”. Also, in [17], the CC50 at 48 h is more than 100 µM.

As for `Cn1cnc(Cn2c(=O)[nH]/c(=N\c3cc4cn(C)nc4cc3Cl)n(Cc3cc(F)c(F)cc3F)c2=O)n1` [S-217622, reference compound], in series [15], the EC50 turned out to be 0.088 µM.

As to `O=C(/C=C/c1ccc(O[C@@H]2O[C@H](CO)[C@@H](O)[C@H](O)[C@H]2O)cc1)c1ccc(O)cc1O` [ISO, isoliquiritin], the CC50 at 24 h in [13] (setting [18]) was more than 100 µM. Further, the “production of NO” value in [8] is on record as “inhibited”. Moreover, the “level of IL-6” value in [9] was “significantly reduce”. Besides, the “level of IL-1β” value in series [10] is “significantly reduce”. Moreover, in series [14], the “level of TNF-α” value is “decrease”.
